Experimental data taken from the NIST ThermoML archive (doi:10.1016/j.fluid.2011.12.007).
± gives the expanded uncertainty stated by the source.

How the values were obtained:
[1] = for mass density: 101.33 kPa, Liquid, Vibrating tube method; for surface tension liquid-gas: Maximal bubble pressure
[2] = refractive index (Na D-line) (dimensionless); details: 298.15 K; 101.33 kPa; Liquid; Standard Abbe refractometry
[3] = xn = mol fraction of the nth substance listed; details: 303.15 K, Maximal bubble pressure
[4] = Boiling temperature at pressure P; details: 101.33 kPa; Liquid; Ebulliometric method (Recirculating still)

CCCCCC [hexane]
Details	mass density [kg/m3]
[1], 298.15 K	655.19 ± 0.17

Details	refractive index
[2]	1.37374 ± 0.00031

CCCCCC [hexane] + C1CCOCC1
Details	surface tension liquid-gas [mN/m]
[3], x1 = 1	17.4 ± 0.25

C1CCOCC1 [tetrahydropyran]
[1]
Details	mass density [kg/m3]	surface tension liquid-gas [mN/m]
283.15 K	–	29.61 ± 0.28
288.15 K	–	29.15 ± 0.28
293.15 K	–	28.56 ± 0.28
298.15 K	879.03 ± 0.09	28 ± 0.28
303.15 K	–	27.14 ± 0.27
308.15 K	–	26.5 ± 0.27
313.15 K	–	25.55 ± 0.27
318.15 K	–	25.25 ± 0.27
323.15 K	–	24.23 ± 0.27
328.15 K	–	23.6 ± 0.26
333.15 K	–	22.75 ± 0.26

Details	Boiling temperature at pressure P [°C]	refractive index
[2]	–	1.42 ± 0.00031
[4]	88.21 ± 0.04	–

C1CCOCC1 [tetrahydropyran] + CCCCCC
[3]
Details	surface tension liquid-gas [mN/m]
x2 = 0	27.1 ± 0.27
x2 = 0.045	26.47 ± 0.27
x2 = 0.09	25.64 ± 0.27
x2 = 0.181	24.39 ± 0.27
x2 = 0.282	23.17 ± 0.26
x2 = 0.383	22.03 ± 0.26
x2 = 0.487	21.13 ± 0.26
x2 = 0.589	20.39 ± 0.26
x2 = 0.674	19.47 ± 0.25
x2 = 0.786	18.77 ± 0.25
x2 = 0.899	18.12 ± 0.25
x2 = 0.964	17.46 ± 0.25
